In patent publication US10450356B2, “PRAME derived peptides and immunogenic compositions comprising these” (Academisch Ziekenhuis Leiden H.O.D.N. LUMC, priority 2007, dated 2019):
Marks after values point to notes of the source that are not given here.

Target: T1, 20S proteasomes purified from a B-LCL cell line (immunoproteasomes) (Homo sapiens, UniProt P28062+P28065+P40306)
T1 construct: 20S proteasomes were purified from a B-LCL cell line; endogenous in cells; purified after Groettrup et al. 1995
Experiment: In vitro proteasome mediated cleavage analysis
Format: biochemical
Design: key to Intact in fragment / Intact Fragment: intact epitope found in digestion fragments: (+), present; (-), not present; key to Processing C-term: generation by proteasome-mediated digestion of fragments containing the correct C-terminus: (++) fragments present for >5%; (+) present for <5%; (-) no fragments containing the C-term. were found
Details: for Processing C-term: generation by proteasome-mediated digestion of fragments containing the correct C-terminus: 1 h digestion; for Intact Fragment: intact epitope found in digestion fragments: after 1 h digestion; for Intact in fragment: intact epitope found in digestion fragments after 1 h digestion; for C-term. generation: generation of C-terminus of the epitope after 1 h digestion
Experimental: 20S proteasomes were purified from a B-LCL cell line as described by Groettrup et al. (J. Biol. Chem. 270:23808-23815; 1995). This cell type is known to contain immunoproteasomes. High LMP2 and 7 content was confirmed by 2-D immuno-blotting. To assess kinetics, digestions were performed with different incubation periods. Peptides (27 mers, 20 μg) were incubated with 1 μg of purified proteasome at 37° C. for 1 h, 4 h and 24 h in 300 μl proteasome digestion buffer as described (Eggers, et al. 1995. J. Exp. Med. 182:1865). Trifluoroacetic acid was added to stop the digestion and samples were stored at −20° C. before mass spectrometric analysis.
Electrospray ionization mass spectrometry was performed on a hybrid quadrupole time-of-flight mass spectrometer, a Q-TOF (Micromass), equipped with an on-line nanoelectrospray interface with an approximate flow rate of 250 nL/min. Injections were done with a dedicated micro/nano HPLC autosampler, the FAMOS (LC Packings). Digestion solutions were diluted five times in water-methanol-acetic acid (95:5:1, v/v/v), and trapped on the precolumn (MCA-300-05-C8; LC Packings) in water-methanol-acetic acid (95:5:1, v/v/v). Washing of the precolumn was done for 3 min to remove the buffers present in the digests. Subsequently, the trapped analytes were eluted with a steep gradient going from 70% B to 90% B in 10 min, with a flow of 250 nl/min (A: water-methanol-acetic acid (95:5:1, v/v/v); B: water-methanol-acetic acid (10:90:1, v/v/v)). This low elution rate allows for a few additional MS/MS experiments if necessary during the same elution. Mass spectra were recorded from mass 50-2000 Da every second. The resolution allows direct determination of the monoisotopic mass, also from multiple charged ions. The peaks in the mass spectrum were searched in the digested precursor peptide using the Biolynx/proteins software (Micromass). The intensity of the peaks in the mass spectra was used to establish the relative amounts of peptides generated by proteasome digestion.

| Processing C-term: generation by proteasome-mediated digestion of fragments containing the correct C-terminus | Intact Fragment: intact epitope found in digestion fragments | Intact in fragment | C-term. generation | SMILES |
| --- | --- | --- | --- | --- |
| - | - |  |  | CSCC[C@H](NC(=O)[C@H](C)N)C(=O)N[C@H](C(=O)N[C@@H](CCC(N)=O)C(=O)N[C@@H](C)C(=O)N[C@@H](Cc1c[nH]c2ccccc12)C(=O)N1CCC[C@H]1C(=O)N[C@@H](Cc1ccccc1)C(=O)N[C@H](C(=O)N[C@@H](CS)C(=O)O)[C@@H](C)O)C(C)C |
| - | - |  |  | CC(C)C[C@H](NC(=O)[C@H](Cc1c[nH]cn1)NC(=O)[C@H](CC(C)C)NC(=O)[C@@H](N)Cc1c[nH]cn1)C(=O)N[C@@H](CCC(=O)O)C(=O)N[C@H](C(=O)N[C@@H](Cc1ccccc1)C(=O)N[C@@H](CCCCN)C(=O)N[C@@H](C)C(=O)O)[C@@H](C)O |
| - | - |  |  | CC(C)C[C@H](NC(=O)[C@H](C)NC(=O)[C@H](CCC(N)=O)NC(=O)[C@H](CC(C)C)NC(=O)[C@H](CS)NC(=O)[C@H](CCC(N)=O)NC(=O)[C@H](CC(C)C)NC(=O)[C@H](CO)NC(=O)[C@H](CC(C)C)NC(=O)[C@@H](N)Cc1ccccc1)C(=O)O [FLSLQCLQAL] |
| - | - |  |  | CC[C@H](C)[C@H](NC(=O)[C@H](C)NC(=O)[C@H](CC(C)C)NC(=O)[C@H](C)N)C(=O)N[C@@H](C)C(=O)N[C@@H](C)C(=O)N[C@@H](CC(C)C)C(=O)N[C@@H](CCC(=O)O)C(=O)N[C@@H](CC(C)C)C(=O)O |
| ++ ((++) fragments present for >5%) | + | + | ++ (abundant (++) present for >5%) | CC[C@H](C)[C@H](NC(=O)[C@H](CO)NC(=O)[C@@H](NC(=O)[C@H](CO)NC(=O)[C@H](CC(N)=O)NC(=O)CNC(=O)[C@H](Cc1ccc(O)cc1)NC(=O)[C@H](Cc1ccccc1)NC(=O)[C@@H](N)CO)[C@@H](C)CC)C(=O)O |
| - | - |  |  | CC(C)C[C@H](NC(=O)[C@H](Cc1c[nH]cn1)NC(=O)[C@H](CCC(N)=O)NC(=O)[C@H](CC(C)C)NC(=O)[C@H](CC(C)C)NC(=O)[C@H](CO)NC(=O)[C@H](CCC(N)=O)NC(=O)[C@H](CC(C)C)NC(=O)[C@H](C)N)C(=O)O |

Second part, the molecule before the results:

| SMILES | Processing C-term: generation by proteasome-mediated digestion of fragments containing the correct C-terminus | Intact Fragment: intact epitope found in digestion fragments | Intact in fragment | C-term. generation |
| --- | --- | --- | --- | --- |
| CC(C)C[C@H](NC(=O)[C@@H](NC(=O)[C@@H]1CCCN1C(=O)[C@H](CC(C)C)NC(=O)[C@H](CCCCN)NC(=O)[C@H](Cc1c[nH]c2ccccc12)NC(=O)[C@@H](NC(=O)[C@@H](N)CS)[C@@H](C)O)[C@@H](C)O)C(=O)N[C@@H](C)C(=O)N[C@@H](CCCCN)C(=O)O | - | - |  |  |
| CC[C@H](C)[C@H](NC(=O)[C@H](C)N)C(=O)N[C@@H](C)C(=O)N[C@@H](C)C(=O)N[C@@H](CC(C)C)C(=O)N[C@@H](CCC(=O)O)C(=O)N[C@@H](CC(C)C)C(=O)N[C@@H](CC(C)C)C(=O)N1CCC[C@H]1C(=O)N[C@@H](CCCNC(=N)N)C(=O)O | - | - |  |  |
| CC[C@H](C)[C@H](NC(=O)[C@H](CCSC)NC(=O)[C@H](CCC(N)=O)NC(=O)CNC(=O)[C@H](CC(C)C)NC(=O)[C@H](Cc1ccc(O)cc1)NC(=O)[C@@H]1CCCN1)C(=O)N[C@@H](CC(N)=O)C(=O)N[C@@H](CC(C)C)C(=O)O | +^(k) ((+) present for <5%) | + | + |  |
| CC[C@H](C)[C@H](NC(=O)[C@@H](N)Cc1ccc(O)cc1)C(=O)N[C@@H](C)C(=O)N[C@@H](CCC(N)=O)C(=O)N[C@@H](Cc1ccccc1)C(=O)N[C@H](C(=O)N[C@@H](CO)C(=O)N[C@@H](CCC(N)=O)C(=O)N[C@@H](Cc1ccccc1)C(=O)N[C@@H](CC(C)C)C(=O)O)[C@@H](C)O | ++ ((++) fragments present for >5%) | + | + | ++ (abundant (++) present for >5%) |
| CC[C@H](C)[C@H](NC(=O)[C@H](CO)NC(=O)[C@H](CC(C)C)NC(=O)[C@@H](N)[C@@H](C)O)C(=O)N[C@H](C(=O)N[C@@H](CC(N)=O)C(=O)N[C@@H](CS)C(=O)N[C@@H](CCCNC(=N)N)C(=O)N[C@@H](CC(C)C)C(=O)O)[C@@H](C)O |  |  | + | ++ (abundant (++) present for >5%) |
| CC[C@H](C)[C@H](NC(=O)[C@H](CO)NC(=O)[C@H](CC(N)=O)NC(=O)CNC(=O)[C@H](Cc1ccc(O)cc1)NC(=O)[C@H](Cc1ccccc1)NC(=O)[C@H](CO)NC(=O)[C@H](CC(C)C)NC(=O)[C@@H](N)[C@@H](C)O)C(=O)O | - | - | + | ++ (abundant (++) present for >5%) |
| CC(C)C[C@H](NC(=O)[C@H](Cc1ccc(O)cc1)NC(=O)[C@H](CO)NC(=O)[C@H](Cc1ccccc1)NC(=O)[C@H](CC(C)C)NC(=O)[C@H](CCC(=O)O)NC(=O)[C@H](CC(=O)O)NC(=O)[C@H](CS)NC(=O)[C@H](C)NC(=O)CN)C(=O)O | - | - |  |  |
| CC(C)C[C@H](NC(=O)[C@H](CC(C)C)NC(=O)[C@H](CC(C)C)NC(=O)[C@H](CCCNC(=N)N)NC(=O)[C@H](CCCNC(=N)N)NC(=O)[C@H](CC(C)C)NC(=O)[C@@H](N)CC(N)=O)C(=O)N[C@@H](CO)C(=O)N[C@@H](Cc1c[nH]cn1)C(=O)O | - | - |  |  |
| CC(C)C[C@H](NC(=O)[C@H](C)NC(=O)[C@H](CCC(N)=O)NC(=O)[C@H](CC(C)C)NC(=O)[C@H](CS)NC(=O)[C@H](CCC(N)=O)NC(=O)[C@H](CC(C)C)NC(=O)[C@@H](N)CO)C(=O)N[C@@H](Cc1ccc(O)cc1)C(=O)N[C@H](C(=O)O)C(C)C | + ((+) present for <5%) | - |  |  |
| CSCC[C@H](NC(=O)[C@H](CO)NC(=O)[C@@H]1CCCN1C(=O)[C@H](CCCNC(=N)N)NC(=O)CNC(=O)[C@H](CC(C)C)NC(=O)[C@H](CCC(=O)O)NC(=O)[C@H](CS)NC(=O)[C@H](CC(C)C)NC(=O)[C@@H](N)CC(C)C)C(=O)O | - | - |  |  |
| CSCC[C@H](NC(=O)[C@@H](NC(=O)[C@H](CC(=O)O)NC(=O)CNC(=O)[C@H](CCC(=O)O)NC(=O)[C@H](CO)NC(=O)[C@@H](N)CC(C)C)C(C)C)C(=O)N[C@@H](Cc1c[nH]cn1)C(=O)N[C@@H](CC(C)C)C(=O)O |  |  | + | + (low abundant (+) present for <5%) |
| CC(C)C[C@H](NC(=O)[C@@H](NC(=O)[C@@H]1CCCN1C(=O)[C@H](CC(C)C)NC(=O)[C@H](CCCCN)NC(=O)[C@H](Cc1c[nH]c2ccccc12)NC(=O)[C@@H](NC(=O)[C@@H](N)CS)[C@@H](C)O)[C@@H](C)O)C(=O)N[C@@H](C)C(=O)O | - | - |  |  |
